Activity calls are given as the source filed them.
Tests used:
[1] = biological target: T1, Replicative DNA helicase DnaB (Mycobacterium tuberculosis, UniProt P9WMR3); experiment: DnaB intein splicing inhibitors, dose response, biochemical, cell-free fluorescence (AID 449749); format: functional
T1 sequence (P9WMR3 whole entry): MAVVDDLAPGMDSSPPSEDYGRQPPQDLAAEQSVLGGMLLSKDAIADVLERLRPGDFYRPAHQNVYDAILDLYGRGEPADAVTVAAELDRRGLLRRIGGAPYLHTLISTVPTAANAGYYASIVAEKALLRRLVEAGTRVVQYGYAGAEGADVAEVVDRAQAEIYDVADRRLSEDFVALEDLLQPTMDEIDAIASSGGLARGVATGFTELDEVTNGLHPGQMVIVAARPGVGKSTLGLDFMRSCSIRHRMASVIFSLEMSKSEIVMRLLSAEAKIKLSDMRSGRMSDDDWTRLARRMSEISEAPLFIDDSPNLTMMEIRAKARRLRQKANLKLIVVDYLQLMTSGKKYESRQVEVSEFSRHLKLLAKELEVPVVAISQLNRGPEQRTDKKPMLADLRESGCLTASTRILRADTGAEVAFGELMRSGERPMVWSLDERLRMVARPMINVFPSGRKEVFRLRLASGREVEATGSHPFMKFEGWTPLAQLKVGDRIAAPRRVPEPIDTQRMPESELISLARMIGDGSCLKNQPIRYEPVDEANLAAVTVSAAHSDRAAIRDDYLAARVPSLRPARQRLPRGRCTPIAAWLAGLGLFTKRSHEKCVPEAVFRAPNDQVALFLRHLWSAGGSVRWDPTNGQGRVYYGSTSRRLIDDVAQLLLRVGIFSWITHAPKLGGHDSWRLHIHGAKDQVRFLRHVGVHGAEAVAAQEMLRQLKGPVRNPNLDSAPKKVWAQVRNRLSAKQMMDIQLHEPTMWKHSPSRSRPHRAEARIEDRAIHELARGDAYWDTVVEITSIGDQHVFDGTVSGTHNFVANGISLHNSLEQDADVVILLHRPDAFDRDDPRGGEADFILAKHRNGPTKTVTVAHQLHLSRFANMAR

[2] = system: Vero; experiment: cells; format: functional, cell-based; conditions: Chlorocebus sabaeus
[3] = biological target: T2, Protein RecA (Mycobacterium tuberculosis, UniProt P9WHJ3); experiment: Fluorescence Cell-Free Homogeneous Dose Retest to Identify Inhibitors of RecA-Intein Splicing Activity. [Related pubchem assays (depositor defined):AID2097, AID2223, AID489010, AID492950]; format: functional
T2 sequence (P9WHJ3 whole entry): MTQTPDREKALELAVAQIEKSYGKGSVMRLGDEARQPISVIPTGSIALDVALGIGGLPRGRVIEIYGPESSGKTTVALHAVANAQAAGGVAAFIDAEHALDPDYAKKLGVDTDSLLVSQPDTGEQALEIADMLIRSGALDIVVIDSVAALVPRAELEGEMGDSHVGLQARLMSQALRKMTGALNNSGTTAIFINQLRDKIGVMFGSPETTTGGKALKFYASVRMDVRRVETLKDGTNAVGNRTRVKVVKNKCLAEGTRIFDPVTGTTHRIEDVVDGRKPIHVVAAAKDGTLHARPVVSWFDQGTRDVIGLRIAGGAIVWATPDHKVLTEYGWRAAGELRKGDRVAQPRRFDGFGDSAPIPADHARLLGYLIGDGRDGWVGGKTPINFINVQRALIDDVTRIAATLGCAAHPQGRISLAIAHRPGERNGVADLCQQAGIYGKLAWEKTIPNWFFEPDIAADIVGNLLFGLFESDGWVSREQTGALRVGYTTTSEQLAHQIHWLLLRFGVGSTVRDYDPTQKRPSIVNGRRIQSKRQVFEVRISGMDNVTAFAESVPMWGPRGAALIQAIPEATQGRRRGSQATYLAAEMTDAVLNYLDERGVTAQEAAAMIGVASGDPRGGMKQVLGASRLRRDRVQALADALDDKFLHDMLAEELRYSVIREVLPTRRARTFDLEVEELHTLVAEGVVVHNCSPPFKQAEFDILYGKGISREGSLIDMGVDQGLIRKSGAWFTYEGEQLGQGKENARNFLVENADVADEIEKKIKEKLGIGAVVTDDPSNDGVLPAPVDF

[4] = system: Vero; experiment: cells; format: functional; conditions: Chlorocebus sabaeus
[5] = biological target: Paired box protein Pax-8 (Homo sapiens, UniProt Q06710); experiment: inhibitors of PAX8-driven TPO luciferase reporter, dose response, RMG-I cells, cherry-pick (AID 687027); format: functional, cell-based;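 further: luciferase reporter driven by Pax8 target thyroperoxidase promoter measured by SteadyGlo luminescence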
Chain of Paired box protein Pax-8 (Q06710 whole entry): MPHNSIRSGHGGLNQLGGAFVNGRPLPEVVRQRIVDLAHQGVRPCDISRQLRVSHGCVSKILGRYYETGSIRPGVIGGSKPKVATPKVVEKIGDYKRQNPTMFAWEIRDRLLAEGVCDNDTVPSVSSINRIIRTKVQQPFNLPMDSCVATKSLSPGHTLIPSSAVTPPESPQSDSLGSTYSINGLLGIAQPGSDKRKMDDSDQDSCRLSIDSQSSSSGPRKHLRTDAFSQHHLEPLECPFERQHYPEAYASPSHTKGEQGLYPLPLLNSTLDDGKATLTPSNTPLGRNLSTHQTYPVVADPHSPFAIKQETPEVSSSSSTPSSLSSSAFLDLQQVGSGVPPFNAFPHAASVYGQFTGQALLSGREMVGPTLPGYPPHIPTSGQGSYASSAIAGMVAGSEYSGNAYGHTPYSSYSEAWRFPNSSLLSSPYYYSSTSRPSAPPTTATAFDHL

[6] = non-specific cell cytotoxicity, dose response, cytotoxicity control for PAX8 inhibitor project, plate reader, dry powder samples (AID 743021); format: functional, cell-based
[7] = biological target: T3, Aminopeptidase N (Plasmodium falciparum FcB1/Columbia, UniProt O96935); experiment: P. falciparum M1AAP inhibitors, biochemical, fluorogenic H-Leu-NHMec substrate, 1536-well (AID 1445); set-up: species or system Plasmodium falciparum 3D7, 3D7
T3 sequence (O96935 whole entry): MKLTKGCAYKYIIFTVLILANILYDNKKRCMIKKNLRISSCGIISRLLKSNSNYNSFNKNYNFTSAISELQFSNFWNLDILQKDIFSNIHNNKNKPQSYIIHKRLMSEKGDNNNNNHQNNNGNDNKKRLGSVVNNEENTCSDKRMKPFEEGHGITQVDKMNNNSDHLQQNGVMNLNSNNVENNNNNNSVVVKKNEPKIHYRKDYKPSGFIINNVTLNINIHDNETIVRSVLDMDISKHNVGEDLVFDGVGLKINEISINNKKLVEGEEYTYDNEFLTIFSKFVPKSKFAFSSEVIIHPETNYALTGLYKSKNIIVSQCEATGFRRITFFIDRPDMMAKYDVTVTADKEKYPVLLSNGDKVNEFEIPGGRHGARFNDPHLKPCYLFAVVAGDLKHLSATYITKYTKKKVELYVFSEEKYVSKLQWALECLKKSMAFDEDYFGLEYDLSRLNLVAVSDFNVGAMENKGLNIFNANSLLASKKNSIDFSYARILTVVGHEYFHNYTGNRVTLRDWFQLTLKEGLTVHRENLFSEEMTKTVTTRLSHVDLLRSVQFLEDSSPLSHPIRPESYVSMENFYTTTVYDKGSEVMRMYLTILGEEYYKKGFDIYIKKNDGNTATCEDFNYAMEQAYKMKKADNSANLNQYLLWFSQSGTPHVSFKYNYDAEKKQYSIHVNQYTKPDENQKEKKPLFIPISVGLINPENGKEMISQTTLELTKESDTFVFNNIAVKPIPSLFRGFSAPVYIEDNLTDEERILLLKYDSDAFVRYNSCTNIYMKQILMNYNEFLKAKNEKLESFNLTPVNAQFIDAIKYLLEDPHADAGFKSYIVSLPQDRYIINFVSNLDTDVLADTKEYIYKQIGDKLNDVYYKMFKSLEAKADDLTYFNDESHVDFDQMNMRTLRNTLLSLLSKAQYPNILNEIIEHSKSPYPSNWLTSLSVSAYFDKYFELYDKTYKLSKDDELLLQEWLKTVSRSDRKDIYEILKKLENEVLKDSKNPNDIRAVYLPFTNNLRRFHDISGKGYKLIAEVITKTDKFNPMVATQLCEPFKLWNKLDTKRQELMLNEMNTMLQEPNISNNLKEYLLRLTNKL

[8] = biological target: Dual specificity tyrosine-phosphorylation-regulated kinase 1A (Rattus norvegicus, UniProt Q63470); format: biochemical, Homo sapiens
[9] = biological target: Voltage-gated inwardly rectifying potassium channel KCNH2 (Homo sapiens, UniProt Q12809); conditions: Potency;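 further: confirmatory quantitative high-throughput screen measuring inhibition of hERG channel activity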
Chain of Voltage-gated inwardly rectifying potassium channel KCNH2 (Q12809 whole entry): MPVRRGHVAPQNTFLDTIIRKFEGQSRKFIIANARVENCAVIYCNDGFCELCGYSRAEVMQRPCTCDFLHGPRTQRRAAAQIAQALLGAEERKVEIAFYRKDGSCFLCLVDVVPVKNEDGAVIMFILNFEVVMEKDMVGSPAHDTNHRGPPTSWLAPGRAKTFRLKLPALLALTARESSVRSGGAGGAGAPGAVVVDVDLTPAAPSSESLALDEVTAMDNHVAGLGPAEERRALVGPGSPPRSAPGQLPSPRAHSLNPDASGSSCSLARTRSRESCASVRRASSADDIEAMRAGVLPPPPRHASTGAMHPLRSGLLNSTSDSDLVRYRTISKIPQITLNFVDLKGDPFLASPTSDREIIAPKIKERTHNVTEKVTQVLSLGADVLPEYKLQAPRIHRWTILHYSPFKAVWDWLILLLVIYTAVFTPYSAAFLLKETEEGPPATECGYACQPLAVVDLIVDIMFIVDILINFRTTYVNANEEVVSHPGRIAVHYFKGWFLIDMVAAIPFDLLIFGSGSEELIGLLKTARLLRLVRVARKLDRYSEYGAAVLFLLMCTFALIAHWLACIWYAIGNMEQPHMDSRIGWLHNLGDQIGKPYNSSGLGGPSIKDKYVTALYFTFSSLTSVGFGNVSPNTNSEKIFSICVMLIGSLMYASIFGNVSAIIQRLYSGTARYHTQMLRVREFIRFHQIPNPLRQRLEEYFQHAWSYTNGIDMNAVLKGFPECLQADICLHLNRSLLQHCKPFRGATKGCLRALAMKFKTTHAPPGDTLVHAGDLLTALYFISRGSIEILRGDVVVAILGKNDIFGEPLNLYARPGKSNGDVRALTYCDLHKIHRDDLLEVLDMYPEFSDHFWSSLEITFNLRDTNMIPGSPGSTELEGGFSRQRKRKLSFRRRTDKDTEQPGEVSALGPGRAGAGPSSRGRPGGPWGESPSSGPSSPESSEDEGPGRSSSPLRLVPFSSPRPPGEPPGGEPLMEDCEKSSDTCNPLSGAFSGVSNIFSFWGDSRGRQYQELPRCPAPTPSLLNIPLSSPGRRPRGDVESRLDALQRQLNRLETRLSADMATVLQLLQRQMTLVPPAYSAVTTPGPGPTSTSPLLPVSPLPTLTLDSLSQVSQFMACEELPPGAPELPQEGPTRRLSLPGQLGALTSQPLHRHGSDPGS

[10] = system: Escherichia coli; experiment: microbe, parasite or virus in culture
[11] = biological target: T4, Heat shock factor protein 1 (Mus musculus, UniProt P38532); experiment: inhibition of MG132-induced HSE-luciferase signal, confirmation, cell-based, NIH3T3, luminescence, dose retest (AID 2382); format: functional;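 further: NIH3T3 fibroblasts with HSF1-driven luciferase reporter stressed by proteasome inhibitor MG132; luminescence from HSF1-driven luciferase expression after 8 hours of MG132 stress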
T4 sequence (P38532 whole entry): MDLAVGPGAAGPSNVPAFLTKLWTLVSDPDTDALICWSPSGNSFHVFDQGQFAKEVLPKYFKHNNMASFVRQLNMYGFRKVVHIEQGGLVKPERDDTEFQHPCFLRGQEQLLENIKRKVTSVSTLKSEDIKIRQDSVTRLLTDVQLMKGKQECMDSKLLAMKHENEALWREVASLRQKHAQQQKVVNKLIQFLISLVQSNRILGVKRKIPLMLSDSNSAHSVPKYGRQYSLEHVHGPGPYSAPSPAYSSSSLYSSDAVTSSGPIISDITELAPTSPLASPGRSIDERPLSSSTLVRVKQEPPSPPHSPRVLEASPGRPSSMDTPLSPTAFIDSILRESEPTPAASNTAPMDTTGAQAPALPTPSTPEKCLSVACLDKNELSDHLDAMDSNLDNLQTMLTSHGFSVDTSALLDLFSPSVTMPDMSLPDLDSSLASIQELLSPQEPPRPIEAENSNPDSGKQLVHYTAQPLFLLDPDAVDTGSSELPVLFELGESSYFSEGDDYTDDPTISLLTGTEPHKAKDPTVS

[12] = NIH-3T3 fibroblast cytotoxicity, dose response, cytotoxicity control, cell-based, fluorescence, Alamar Blue, secondary assay (AID 2327); format: functional;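 further: NIH-3T3 mouse fibroblasts cultured with fluconazole at 8 µg/mL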
[13] = C. albicans growth with fluconazole, confirmation, fluorescence, retest (AID 2467); format: functional, cell-based
[14] = biological target: T5, Serine/threonine-protein phosphatase (Candida dubliniensis (strain CD36 / CBS 7987 / NCPF 3949 / NRRLY-17841) (Yeast), UniProt B9W6M3); experiment: calcineurin pathway inhibitors in yeast reporter, dose response, S. cerevisiae, CDRE-lacZ, luminescence, secondary (AID 2388); format: functional, cell-based;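 further: yeast reporter cells carrying a calcineurin-responsive lacZ construct stimulated with calcium chloride; luminescent beta-galactosidase reporter signal in whole cells rather than isolated phosphatase activity; potency for inhibition where a drop in reporter signal means calcineurin blockade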
T5 sequence (B9W6M3 whole entry): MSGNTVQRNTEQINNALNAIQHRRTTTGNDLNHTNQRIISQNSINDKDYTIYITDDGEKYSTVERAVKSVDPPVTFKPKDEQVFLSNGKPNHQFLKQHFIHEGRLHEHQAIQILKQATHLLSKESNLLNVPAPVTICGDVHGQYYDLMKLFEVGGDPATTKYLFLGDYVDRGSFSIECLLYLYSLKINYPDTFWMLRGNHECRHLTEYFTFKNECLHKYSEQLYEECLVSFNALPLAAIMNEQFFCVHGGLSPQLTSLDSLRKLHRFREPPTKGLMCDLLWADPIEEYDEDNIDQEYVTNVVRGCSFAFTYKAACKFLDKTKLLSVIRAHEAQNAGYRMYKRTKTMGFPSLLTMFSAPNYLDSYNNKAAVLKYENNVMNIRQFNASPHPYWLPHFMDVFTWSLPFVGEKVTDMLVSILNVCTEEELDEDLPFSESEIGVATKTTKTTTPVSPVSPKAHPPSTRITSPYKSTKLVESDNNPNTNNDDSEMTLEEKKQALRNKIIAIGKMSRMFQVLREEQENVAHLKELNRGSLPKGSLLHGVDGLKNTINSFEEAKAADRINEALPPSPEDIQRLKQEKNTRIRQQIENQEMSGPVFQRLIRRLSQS

[15] = biological target: ATP-dependent molecular chaperone HSP82 (Candida albicans (strain WO-1) (Yeast), UniProt C4YTQ8); experiment: loss of DOC-induced GRE-beta-galactosidase reporter signal, dose response, Hsp90 inhibitor project, S. cerevisiae, luminescence (AID 2400); format: functional, cell-based;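 further: beta-galactosidase luminescence from glucocorticoid response element reporter as proxy for Hsp90 function; inhibitor potency where signal loss means Hsp90 inhibition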
Chain of ATP-dependent molecular chaperone HSP82 (C4YTQ8 whole entry): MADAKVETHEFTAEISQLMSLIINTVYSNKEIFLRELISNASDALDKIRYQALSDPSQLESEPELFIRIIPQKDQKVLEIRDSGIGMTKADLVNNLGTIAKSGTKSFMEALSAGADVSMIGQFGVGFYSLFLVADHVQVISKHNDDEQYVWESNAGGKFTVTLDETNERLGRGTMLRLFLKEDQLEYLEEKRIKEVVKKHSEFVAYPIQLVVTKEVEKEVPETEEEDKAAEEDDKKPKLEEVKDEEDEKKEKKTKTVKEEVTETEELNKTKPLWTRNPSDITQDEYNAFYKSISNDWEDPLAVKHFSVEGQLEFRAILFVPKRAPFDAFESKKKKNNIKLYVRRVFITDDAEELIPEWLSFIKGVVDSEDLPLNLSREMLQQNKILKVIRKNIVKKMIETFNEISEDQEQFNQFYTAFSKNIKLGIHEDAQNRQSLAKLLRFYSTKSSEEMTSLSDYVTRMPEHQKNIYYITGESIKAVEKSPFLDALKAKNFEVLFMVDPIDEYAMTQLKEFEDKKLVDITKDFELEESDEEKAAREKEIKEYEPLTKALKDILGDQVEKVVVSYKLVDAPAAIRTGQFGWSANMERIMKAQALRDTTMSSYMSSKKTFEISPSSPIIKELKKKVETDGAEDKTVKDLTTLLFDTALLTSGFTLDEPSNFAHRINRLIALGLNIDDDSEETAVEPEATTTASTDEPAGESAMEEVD

[16] = biological target: Mu-type opioid receptor (Homo sapiens, UniProt P35372); format: functional, cell-based;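 further: U2OS cells with beta-arrestin recruitment to OPRM1 by beta-gal complementation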
Chain of Mu-type opioid receptor (P35372 whole entry): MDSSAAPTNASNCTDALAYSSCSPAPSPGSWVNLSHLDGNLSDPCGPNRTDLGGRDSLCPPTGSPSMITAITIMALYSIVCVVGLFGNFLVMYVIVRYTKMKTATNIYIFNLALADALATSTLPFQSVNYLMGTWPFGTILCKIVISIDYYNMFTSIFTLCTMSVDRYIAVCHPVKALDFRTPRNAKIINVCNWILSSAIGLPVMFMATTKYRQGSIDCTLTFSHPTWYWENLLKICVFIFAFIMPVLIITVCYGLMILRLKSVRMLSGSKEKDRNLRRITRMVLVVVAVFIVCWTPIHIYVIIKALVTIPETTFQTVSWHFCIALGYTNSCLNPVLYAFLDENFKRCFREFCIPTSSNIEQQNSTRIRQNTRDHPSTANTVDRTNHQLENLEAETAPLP

[17] = biological target: 5-hydroxytryptamine receptor 2A (Mus musculus, UniProt P35363); format: functional, cell-based;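 further: CHO-K1 cells with tagged receptor and beta-arrestin; agonist potency measured as compound-induced activation of the receptor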
Chain of 5-hydroxytryptamine receptor 2A (P35363 whole entry): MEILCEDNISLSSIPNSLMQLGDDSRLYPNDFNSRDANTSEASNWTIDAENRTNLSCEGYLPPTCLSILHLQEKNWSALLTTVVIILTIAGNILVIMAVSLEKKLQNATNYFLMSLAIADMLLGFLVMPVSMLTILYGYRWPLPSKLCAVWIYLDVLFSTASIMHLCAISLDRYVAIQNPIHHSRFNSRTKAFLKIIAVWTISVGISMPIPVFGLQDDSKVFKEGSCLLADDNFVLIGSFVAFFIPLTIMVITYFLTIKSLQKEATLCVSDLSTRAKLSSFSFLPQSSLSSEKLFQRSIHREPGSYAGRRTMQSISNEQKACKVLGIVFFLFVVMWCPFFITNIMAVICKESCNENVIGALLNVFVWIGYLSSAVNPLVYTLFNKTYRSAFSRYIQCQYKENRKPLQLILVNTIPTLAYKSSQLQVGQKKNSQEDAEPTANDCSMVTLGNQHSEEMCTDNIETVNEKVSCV

[18] = system: Streptococcus sp. 'group A'; experiment: growth inhibition of control SK(-) GAS strain, dose response, counter-screen for streptokinase expression inhibitor project, luminescence, kanamycin, BacTiterGlo, confirmation (AID 1900); format: functional, organism-based
[19] = system: Streptococcus; experiment: Group A Streptococcus viability loss, dose response, counter-screen for streptokinase expression inhibitor project, luminescence, BacTiterGlo (AID 1915); format: functional, organism-based;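 further: potency for reduction of bacterial viability or growth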
[20] = system: INS1; experiment: beta cell apoptosis inhibitors, cytokine rescue, dose response, luminescence, retest (AID 449756); format: functional, cell-based; conditions: Rattus norvegicus;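 further: cell death triggered by IL-1 beta plus TNF-alpha plus IFN-gamma mixture; protective hits raise ATP signal compared with cytokine alone wells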

With `Cc1cccc(N(Cc2cc(O)nc3ccccc23)C(=O)CCl)c1` the AC50 [1] was 10.5 µM (active), the IC50 [2] was > 25 µM (active) and the EC50 [3] was 1.67 µM (active). The CC50 [4] was 5.83 µM (active), the AC50 [5] was 3.93 µM (active) and the AC50 [6] was 24.9 µM (active).

For `Cc1cc(-c2ccc(C(=O)O)s2)cnc1N`, the IC50 [7] was 58.9 µM (active) and the AC50 [8] was 4.79 µM (active).

With `COc1cc(N)c(Cl)cc1C(=O)OCCN1CCCCC1` the AC50 [9] was 25.1 µM (inconclusive).

With `O=C(O)c1cc(/N=C/c2c(O)oc3ccccc3c2=O)ccc1O` the AC50 [8] was 32.5 µM (active).

In the case of `CC(=O)Nc1ccc(NS(=O)(=O)c2ccc3ccccc3c2)cc1`, the AC50 [10] was 27.4 µM (active).

For `CC(C)c1ccccc1` [ISOPROPYLBENZENE], the AC50 [9] was 1.58 µM (inconclusive).

With `OCc1c[nH]cn1` the AC50 [9] was 1.78 µM (inconclusive).

For `CC(Oc1cccnc1[N+](=O)[O-])C(=O)N1CCc2ccccc21` (stereo not given), the AC50 [10] was 22.2 µM (active).

For `CC(C)OC(=O)Cn1c(=O)oc2ccccc21`, the EC50 [11] was > 195 µM (not active) and the AC50 [10] was 21.8 µM (active).

For `CCCC(=O)Nc1nc(-c2ccc3c(c2)OCCO3)cs1`, the AC50 [8] was 8.75 µM (active).

In the case of `COc1cccc(-c2nc(NC(C)C)c3ccccc3n2)c1O`, the EC50 [12] was > 160 µM (inactive), the EC50 [13] was 4.42 µM (active) and the EC50 [14] was > 180 µM (inactive). For the same molecule, the EC50 [15] was 54.5 µM (active), the EC50 [16] was 92.5 µM (inactive) and the EC50 [17] was 8.51 µM (active).

With `Cc1cc(N/N=C/c2c(O)ccc3ccccc23)nc(-c2ccccc2O)n1` the EC50 [12] was > 160 µM (inactive), the EC50 [18] was 0.235 µM (active) and the EC50 [13] was 2.07 µM (active). For the same molecule, the EC50 [14] was > 180 µM (inactive), the EC50 [19] was 0.425 µM (active) and the AC50 [20] was 1.69 µM (active). The EC50 [15] was 38.8 µM (active).

From ChEMBL document CHEMBL1201862, “PubChem BioAssay data set” (2004)
